Assays:
Test in all cases: relative viability (nuclei count vs DMSO), 5 days (fraction); higher = more cells survive
[1] = compound: CC(C)=CC[C@@H](O)C1=CC(=O)c2c(O)ccc(O)c2C1=O [Shikonin] + O=C(c1cc(Cc2n[nH]c(=O)c3ccccc23)ccc1F)N1CCN(C(=O)C2CC2)CC1 [Olaparib] (partner 8 µM)
Outline: (§1)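 Lung cancer cell lines, seeded in 1536-well plates, were treated the following day by pin tool with a single drug or with five library-drug doses (not always all listed) in √10 steps on top of a fixed anchor-drug dose. Cells were fixed and nuclei stained in one step after 5 days, and nuclei were counted. Relative viability is the nuclei count for treated wells divided by that for vehicle wells, reported as medians of duplicate plates.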

[2] = compound: CC(C)N(CCCNC(=O)Nc1ccc(C(C)(C)C)cc1)C[C@H]1O[C@@H](n2ccc3c(N)ncnc32)[C@H](O)[C@@H]1O + CC(C)C[C@H](NC(=O)[C@H](Cc1ccccc1)NC(=O)c1cnccn1)B(O)O [Bortezomib] (partner 0.002 µM)
Outline: as §1

[3] = compound: CC(C)N(CCCNC(=O)Nc1ccc(C(C)(C)C)cc1)C[C@H]1O[C@@H](n2ccc3c(N)ncnc32)[C@H](O)[C@@H]1O + C[C@]1(O)C[C@@H](c2nc(-c3ccc4ccc(-c5ccccc5)nc4c3)c3c(N)nccn32)C1 [Linsitinib] (partner 1 µM)
Outline: as §1

[4] = compound: CC(C)=CC[C@@H](O)C1=CC(=O)c2c(O)ccc(O)c2C1=O [Shikonin] + Cc1nc(NC(=O)N2CCC[C@H]2C(N)=O)sc1-c1ccnc(C(C)(C)C(F)(F)F)c1 [Alpelisib] (partner 2 µM)
Outline: as §1

Cell Line | relative viability ([1]; first compound 0.01 µM) | relative viability ([1]; first compound 0.1 µM) | relative viability ([1]; first compound 0.3162 µM) | relative viability ([1]; first compound 1 µM) | relative viability ([2]; first compound 0.08 µM) | relative viability ([2]; first compound 0.253 µM) | relative viability ([2]; first compound 0.8 µM) | relative viability ([2]; first compound 2.53 µM) | relative viability ([2]; first compound 8 µM) | relative viability ([3]; first compound 0.08 µM) | relative viability ([3]; first compound 0.253 µM) | relative viability ([3]; first compound 0.8 µM) | relative viability ([3]; first compound 2.53 µM) | relative viability ([3]; first compound 8 µM) | relative viability ([4]; first compound 0.01 µM) | relative viability ([4]; first compound 0.1 µM) | relative viability ([4]; first compound 0.3162 µM) | relative viability ([4]; first compound 1 µM)
HCC-44 | 0.963 | 1.01 | 1.07 | 0.993 | 0.902 | 1.01 | 0.774 | 0.991 | 0.842 | 0.647 | 0.68 | 0.748 | 0.666 | 0.729 | 0.972 | 0.849 | 0.933 | 0.852
HCC-827 | 0.678 | 0.562 | 0.621 | 0.52 | 1.08 | 0.969 | 0.668 | 1.02 | 0.993 | 0.936 | 0.904 | – | 0.892 | 0.89 | 0.996 | 1.11 | 0.994 | 0.812
NCI-H2405 | 0.918 | 0.952 | 0.892 | 0.868 | 0.986 | 0.989 | 0.918 | 0.994 | 0.819 | 0.901 | – | 0.919 | 0.966 | 0.945 | 0.742 | 0.798 | 0.864 | 0.761
RERF-LC-KJ | 1.05 | 1.08 | 0.842 | 0.62 | 0.97 | 1.15 | 1.09 | 1.04 | 0.971 | 0.85 | 0.93 | 0.895 | 0.897 | 0.794 | 0.78 | 0.732 | 0.798 | 0.787
NCI-H1651 | 0.173 | 0.188 | 0.161 | 0.178 | 0.958 | 0.957 | 0.967 | 0.943 | 0.944 | 0.99 | 0.983 | 0.965 | 1.11 | 0.987 | 0.921 | 0.98 | 1 | 1.07
HARA | 0.557 | 0.7 | 0.492 | 0.574 | 1.13 | 1.15 | 0.604 | 1.03 | 1.02 | 0.885 | 0.845 | 0.868 | 0.794 | 0.906 | 0.871 | 0.871 | 0.923 | 0.917
NCI-H1650 | 0.877 | 0.787 | 0.732 | 0.718 | 0.185 | 0.205 | – | 0.205 | 0.201 | – | – | – | – | – | – | – | – | –
NCI-H1395 | 0.407 | 0.455 | 0.416 | 0.427 | – | – | – | – | – | 1.09 | 0.881 | – | 1.07 | 0.987 | 1.14 | 1.16 | 0.973 | 1
NCI-H520 | 0.323 | 0.368 | 0.283 | 0.295 | 0.581 | 0.179 | 0.155 | 0.647 | 0.524 | 0.943 | 0.87 | 0.882 | 1 | 0.894 | – | 1.25 | 0.902 | 0.961
LU99A | 0.256 | 0.272 | 0.233 | 0.222 | 1.12 | 0.831 | 1.38 | 1.16 | 1.2 | 0.516 | 0.405 | 0.521 | 0.582 | 0.563 | 0.592 | 0.671 | 0.576 | 0.441

Source: the supplement of paper PMC10307832
